Laboratory results as given in US20260042755A1, “GPR6 INVERSE AGONISTS” (MapLight Therapeutics, Inc., priority 2022, published 2026).

Columns and labels:
GPR6 = molecular target: T1, GPR6 (Homo sapiens, UniProt P46095); assay: GPR6 antagonist functional cAMP assay (LANCE Ultra cAMP TR-FRET, CHO cells stably expressing GPR6); type: cell-based
T1 construct: expressed in transfected cells; host or cells: CHO cells
Method in brief: (§1)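 We measure cAMP by TR-FRET (665 nm) in cells held in glucose-containing Krebs-Ringer buffer with BSA and a PDE inhibitor, after a 45 min, 37 °C compound incubation. IC50s derive from a four-parameter logistic fit.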

GPR3 = molecular target: T2, GPR3 (Homo sapiens, UniProt P46089); assay: GPR3 antagonist functional cAMP assay (LANCE Ultra cAMP TR-FRET, CHO cells stably expressing GPR3); type: cell-based
T2 construct: expressed in transfected cells; host or cells: CHO cells
T2 sequence (P46089 whole entry, species assumed): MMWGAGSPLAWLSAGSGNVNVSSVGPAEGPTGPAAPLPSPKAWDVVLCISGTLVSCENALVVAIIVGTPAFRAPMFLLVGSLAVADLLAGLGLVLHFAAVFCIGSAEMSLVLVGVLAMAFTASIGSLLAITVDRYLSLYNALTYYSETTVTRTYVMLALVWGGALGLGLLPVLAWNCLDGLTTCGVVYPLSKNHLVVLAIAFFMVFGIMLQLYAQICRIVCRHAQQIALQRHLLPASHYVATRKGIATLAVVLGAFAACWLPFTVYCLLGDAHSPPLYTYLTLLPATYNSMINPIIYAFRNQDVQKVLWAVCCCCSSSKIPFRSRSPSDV
Method in brief: as §1

[1] = CHO cells stably expressing GPR6, cAMP assay (Example 24)
[2] = CHO cells stably expressing GPR3, cAMP assay (Example 24)
[3] = CHO cells stably expressing GPR6, cAMP assay
[4] = CHO cells stably expressing GPR3, cAMP assay

T1 sequence (P46095 whole entry): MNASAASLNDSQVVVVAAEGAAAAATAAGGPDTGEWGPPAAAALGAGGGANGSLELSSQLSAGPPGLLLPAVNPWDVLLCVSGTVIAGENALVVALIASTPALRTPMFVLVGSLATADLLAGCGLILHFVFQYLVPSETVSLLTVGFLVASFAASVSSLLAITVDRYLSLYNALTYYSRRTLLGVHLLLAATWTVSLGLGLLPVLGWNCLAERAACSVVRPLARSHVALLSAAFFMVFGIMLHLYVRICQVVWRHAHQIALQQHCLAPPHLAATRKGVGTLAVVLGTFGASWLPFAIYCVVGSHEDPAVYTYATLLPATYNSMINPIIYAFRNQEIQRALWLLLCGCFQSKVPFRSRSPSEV

| SMILES | IC50 (GPR6; procedure of Example 24) | IC50 (GPR3; procedure of Example 24) | also measured |
| --- | --- | --- | --- |
| O=C1CC(N2CCc3nc(N4CCC(Oc5ccc(F)cc5F)CC4)c(-c4cn[nH]c4)nc3C2)CN1 (stereo not drawn) [Compound 229, 4-{2-[4-(2,4-difluorophenoxy)piperidin-1-yl]-3-(1H-pyrazol-4-yl)-5H,6H,7H,8H-pyrido[3,4-b]pyrazin-6-yl}pyrrolidin-2-one] |  |  | IC50 (GPR6; [1]): 1000 to 30000 nM; IC50 (GPR3; [2]): 1000 to 30000 nM |
| CO[C@@H](CO)c1cc2nc(N3CCC(Oc4ccc(F)cc4F)CC3)c(-c3cnn(C)c3)nc2cn1 (single isomer, unassigned) [Compound 640] | 100 to 1000 nM | 1000 to 30000 nM |  |
| CC(C)(O)[C@H](O)c1cc2nc(-c3cnn(C(F)F)c3)c(N3CCN(Cc4ccccc4F)CC3)nc2cn1 (single isomer, unassigned) [Compound 685] | 100 to 1000 nM | 1000 to 30000 nM |  |
| CCc1cncc(-c2nc3c(nc2N2CCC(Oc4ccc(F)cc4F)CC2)CCN(C(C)=O)C3)n1 [Compound 493, 1-{2-[4-(2,4-difluorophenoxy)piperidin-1-yl]-3-(6-ethylpyrazin-2-yl)-5H,6H,7H,8H-pyrido[3,4-b]pyrazin-6-yl}ethan-1-one] |  |  | IC50 (GPR6; [3]): 1000 to 30000 nM; IC50 (GPR3; [4]): 1000 to 30000 nM |
| CNC(=O)N1CCc2nc(N3CCC(Oc4ccc(F)cc4F)CC3)c(-c3cn[nH]c3)nc2C1 [Compound 180, 2-[4-(2,4-difluorophenoxy)piperidin-1-yl]-N-methyl-3-(1H-pyrazol-4-yl)-5H,6H,7H,8H-pyrido[3,4-b]pyrazine-6-carboxamide] |  |  | IC50 (GPR6; [1]): 1000 to 30000 nM; IC50 (GPR3; [2]): 1000 to 30000 nM |
| CC(=O)N1CCc2nc(N3CCC([C@@H](F)c4ccc(F)cc4F)CC3)c(-c3cnn(C)c3)nc2C1 (single isomer, unassigned) [Compound 659] | < 100 nM | 100 to 1000 nM |  |
| Cn1cc(-c2nc3cnc([C@H]4C[C@@H]4C(=O)O)cc3nc2N2CCC(Oc3ccc(F)cc3F)CC2)cn1 (single isomer, unassigned) [Compound 737] | 1000 to 30000 nM | 1000 to 30000 nM |  |
| Cn1cc(-c2nc3cc([C@H](O)C(C)(C)O)ncc3nc2N2CCN(Cc3ccc(F)cc3F)CC2)cn1 (stereo in doubt) [Compound 370, (Rel-S)-1-(3-(4-(2,4-difluorobenzyl)piperazin-1-yl)-2-(1-methyl-1H-pyrazol-4-yl)pyrido[3,4-b]pyrazin-7-yl)-2-methylpropane-1,2-diol] | < 100 nM | 1000 to 30000 nM |  |
| CC(=O)N1CCc2nc(N3CCC(Oc4ccc(F)cc4F)CC3)c(C3CCN(C4COC4)C3)nc2C1 (stereo not drawn) [Compound 544, 1-{2-[4-(2,4-difluorophenoxy)-1-piperidyl]-3-[1-(3-oxetanyl)-3-pyrrolidinyl]-5,6,7,8-tetrahydro-1,4,6-triaza-6-naphthyl}-1-ethanone] |  |  | IC50 (GPR6; [3]): 1000 to 30000 nM; IC50 (GPR3; [4]): 1000 to 30000 nM |
| CC(=O)N1CCc2nc(N3CCC(Oc4ccc(F)cc4F)CC3)c(-c3cnn4c3COCC4)nc2C1 [Compound 245, 1-{2-[4-(2,4-difluorophenoxy)piperidin-1-yl]-3-{4H,6H,7H-pyrazolo [3,2-c][1,4]oxazin-3-yl}-5H,6H,7H,8H-pyrido[3,4-b]pyrazin-6-yl}ethan-1-one] |  |  | IC50 (GPR6; [1]): 100 to 1000 nM; IC50 (GPR3; [2]): 1000 to 30000 nM |
| CC(=O)N1CCc2nc(N3CCC(Oc4ccc(F)cc4F)CC3)c(-c3cnn(CC#N)c3)nc2C1 [Compound 81, 2-(4-{6-acetyl-2-[4-(2,4-difluorophenoxy)piperidin-1-yl]-5H,6H,7H,8H-pyrido[3,4-b]pyrazin-3-yl}-1H-pyrazol-1-yl)acetonitrile] |  |  | IC50 (GPR6; [1]): 100 to 1000 nM; IC50 (GPR3; [2]): 1000 to 30000 nM |
| O=c1cc2nc(-c3cnn(CF)c3)c(N3CCN(Cc4ccc(F)cc4F)CC3)nc2c[nH]1 [Compound 796, 3-{4-[(2,4-difluorophenyl)methyl]-1-piperazinyl}-2-[1-(fluoromethyl)-4-pyrazolyl]-1,4,6-triaza-7(6H)-naphthalenone] | 100 to 1000 nM | 1000 to 30000 nM |  |
| CC(=O)N1CCc2nc(N3CCC(Oc4ccc(F)c(F)c4)CC3)c(-c3cnn(C)c3)nc2C1 [Compound 453, 1-{2-[4-(3,4-difluorophenoxy)piperidin-1-yl]-3-(1-methyl-1H-pyrazol-4-yl)-5H,6H,7H,8H-pyrido[3,4-b]pyrazin-6-yl}ethan-1-one] |  |  | IC50 (GPR6; [1]): 1000 to 30000 nM; IC50 (GPR3; [2]): 1000 to 30000 nM |
| CC(=O)N1CCc2nc(N3CCN(C(=O)c4ccc(F)cc4F)CC3)c(-c3cnn(C)c3)nc2C1 [Compound 630, 1-{2-[4-(2,4-difluorobenzoyl)-1-piperazinyl]-3-(1-methyl-4-pyrazolyl)-5,6,7,8-tetrahydro-1,4,6-triaza-6-naphthyl}-1-ethanone] | 1000 to 30000 nM | ≥ 30000 nM |  |
| CC(C)(O)[C@H](O)c1cc2nc(N3CCC(Oc4ccc(F)cc4F)CC3)c(-c3cnn(C(F)F)c3)nc2cn1 (single isomer, unassigned) [Compound 554] |  |  | IC50 (GPR6; [3]): < 100 nM; IC50 (GPR3; [4]): 1000 to 30000 nM |
| CC(C)(O)[C@@](C)(O)c1cc2nc(N3CCN(Cc4ccc(F)cc4F)CC3)c(-c3cnn(C4CC4)c3)nc2cn1 (single isomer, unassigned) [Compound 667] | 100 to 1000 nM | 1000 to 30000 nM |  |
| OCCN1CCc2nc(N3CCC(Oc4ccc(F)cc4F)CC3)c(-c3cnn(C4CCCCO4)c3)nc2C1 (stereo not drawn) [Compound 140, 2-{2-[4-(2,4-difluorophenoxy)piperidin-1-yl]-3-[1-(oxan-2-yl)-1H-pyrazol-4-yl]-5H,6H,7H,8H-pyrido[3,4-b]pyrazin-6-yl}ethan-1-ol] |  |  | IC50 (GPR6; [1]): 1000 to 30000 nM; IC50 (GPR3; [2]): 1000 to 30000 nM |
| CC(=O)N1CCc2nc(N3CCC(Oc4ccc(F)cc4F)CC3)c(-c3cnn(C4CS(=O)(=O)C4)c3)nc2C1 [Compound 82, 3-(4-{6-acetyl-2-[4-(2,4-difluorophenoxy)piperidin-1-yl]-5H,6H,7H,8H-pyrido[3,4-b]pyrazin-3-yl}-1H-pyrazol-1-yl)-1λ^6-thietane-1,1-dione] |  |  | IC50 (GPR6; [1]): 1000 to 30000 nM; IC50 (GPR3; [2]): 1000 to 30000 nM |
| COC[C@@H](O)c1cc2nc(N3CCC(Oc4ccc(F)cc4F)CC3)c(-c3cnn(C)c3)nc2cn1 (single isomer, unassigned) [Compound 642] | 100 to 1000 nM | 1000 to 30000 nM |  |
| CC(C)(O)[C@@H](O)c1cc2nc(N3CCC(Cc4ccc(F)cc4F)CC3)c(-c3cnn(CF)c3)nc2cn1 (single isomer, unassigned) [Compound 727] | 100 to 1000 nM | 100 to 1000 nM |  |
| CC(C)(O)[C@@H](O)c1cc2nc(N3CCC(=Cc4ccc(F)cc4F)CC3)c(-c3cnn(C(F)F)c3)nc2cn1 (single isomer, unassigned) [Compound 778] | 100 to 1000 nM | 1000 to 30000 nM |  |
| COc1ccc(C(=O)N2CCN(c3nc4c(nc3-c3cnn(C)c3)CN(C(C)=O)CC4)CC2)cc1F [Compound 282, 1-{2-[4-(3-fluoro-4-methoxybenzoyl)piperazin-1-yl]-3-(1-methyl-1H-pyrazol-4-yl)-5H,6H,7H,8H-pyrido[3,4-b]pyrazin-6-yl}ethan-1-one] | ≥ 30000 nM | ≥ 30000 nM |  |
| CC(=O)N1CCc2nc(N3CCN(Cc4ccc(F)cc4C#N)CC3)c(-c3cnn(C)c3)nc2C1 [Compound 355, 2-({4-[6-acetyl-3-(1-methyl-1H-pyrazol-4-yl)-5H,6H,7H,8H-pyrido[3,4-b]pyrazin-2-yl]piperazin-1-yl}methyl)-5-fluorobenzonitrile] | 1000 to 30000 nM | 1000 to 30000 nM |  |
| CC(C)(O)C(C)(O)c1cc2nc(N3CCN(Cc4ccccc4F)CC3)c(-c3cnn(CF)c3)nc2cn1 (stereo not drawn) [Compound 622, 2-{3-[1-(fluoromethyl)-4-pyrazolyl]-2-{4-[(o-fluorophenyl)methyl]-1-piperazinyl}-1,4,6-triaza-7-naphthyl}-3-methyl-2,3-butanediol] | 100 to 1000 nM | 1000 to 30000 nM |  |
